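Tested at 5 concentrations; 48 h exposure; 96-well plates; endpoints linearly interpolated, else capped at highest concentration. Abbreviation: GI50, concentration required for 50% inhibition of growth. TGI marks complete inhibition of growth.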
Legend:
Experiment in all cases: growth of human tumour cells (NCI), 48 h
[1] = tested on: ACHN renal
[2] = tested on: HCC-2998 colon
[3] = tested on: LOX IMVI melanoma
[4] = tested on: RPMI-8226 leukemia
[5] = tested on: RXF 393 renal
[6] = tested on: SNB-75 CNS
[7] = tested on: UACC-62 melanoma
[8] = tested on: SF-539 CNS

Row | SMILES | TGI [1] [µM] | TGI [2] [µM] | TGI [3] [µM] | TGI [4] [µM] | TGI [5] [µM] | TGI [6] [µM] | TGI [7] [µM] | TGI [8] [µM] | GI50 [1] [µM] | GI50 [2] [µM] | GI50 [3] [µM] | GI50 [4] [µM] | GI50 [5] [µM] | GI50 [8] [µM] | GI50 [6] [µM] | GI50 [7] [µM]
1 | CCCn1cnc2c(SCC(=O)O)nc(N)nc21 | > 100 | > 100 | > 100 | > 100 | > 100 | > 100 | > 100 |  |  |  |  |  |  |  |  | 
2 | Cc1cc(Cl)ccc1OCC(=O)Nc1nc(N)nc(N)n1 | > 100 |  | > 100 | > 100 | > 100 | > 100 | > 100 | > 100 |  |  |  |  |  |  |  | 
3 | CCc1ccccc1NC(=O)/C=C/c1ccccc1 | > 100 | > 100 | > 100 | > 100 |  | > 100 | > 100 | > 100 |  |  |  |  |  |  |  | 
4 | COc1ccc(C(=O)c2cc3c(N)c(C(=O)Nc4ccccc4)sc3nc2C)cc1 | > 100 | 55.3 | > 100 | > 100 | > 100 | 5.92 | > 100 | 4.57 | 1.56 | 1.96 | 0.739 | 1.78 | 0.485 | 0.598 | 0.242 | 0.952
5 | CCOc1ccc2c(c1)C(=O)c1c-2n(CCCBr)c(=O)c2cc([N+](=O)[O-])ccc12 | 69.7 | > 100 | > 100 | > 100 | > 100 | > 100 | > 100 | 40.9 | 3.76 | 57.7 | 5.38 | 30.7 | 37.9 | 5.57 | 33.9 | 5.73
6 | CCCCCCCC(=O)OCCCC1[C@]2(C)CC[C@@]3(C)C([C@H](C)CCC=C(C)C)CC[C@]3(C)C2CC[C@]12OC2(C)C (stereo partly drawn) | 45.4 | 47.5 |  | > 100 | 49.3 | > 100 | 78 | 59.5 | 22.9 | 18.6 |  | 36.4 | 21.3 | 26.5 | > 100 | 17.6
7 | Cc1cc(Nc2nc(C(=O)Nc3ccccc3)nc3ccccc23)n[nH]1 | > 25 | > 25 | > 25 | > 25 | > 25 | > 25 |  | > 25 | 2.87 | 17.7 | 4.47 | 12.5 | 3.66 | > 25 | 6.8 | 
8 | C1=C/COCc2cc(ccc2OCCN2CCCC2)Nc2nccc(n2)-c2ccc(o2)COC/1 | 11.8 | 7.93 | 2.29 | 5.21 | 1.64 | 2.75 | 3.08 | 3.33 | 0.699 | 2.18 | 0.817 | 2.29 | 0.397 | 1.72 | 1.25 | 1.42
9 | NCCCCC1NC(=O)C(CC(=O)O)NC(=O)CNC(=O)C(CCCN=C(N)N)NC(=O)C(N)CSSCC(C(=O)O)NC(=O)C(CC(=O)O)NC(=O)C2CCCN2C(=O)CNC1=O (stereo not drawn) | > 100 | > 100 | > 100 |  | > 100 | > 100 | > 100 | > 100 | > 100 | > 100 | > 100 |  | > 100 | > 100 | > 100 | > 100
10 | Cc1ccc2nc(-c3ccc(OCC(=O)N=Nc4c(O)[nH]c5ccccc45)cc3)[nH]c2c1 | > 100 | 20.5 | 3.52 | 17.8 | 24.4 | 38.5 | 16.8 | 13.9 | 7.37 | 4.1 | 1.83 | 3.44 | 7.94 | 3.51 | 13 | 4.38
11 | CC(C)c1nc(N(C)S(C)(=O)=O)nc(-c2ccc(F)cc2)c1/C=C/[C@@H](O)C[C@@H](O)CC(=O)O | > 100 | > 100 | > 100 | > 100 | > 100 | > 77.5 | > 100 | > 100 | 34.2 | > 100 | 21.2 | > 100 | 41.5 | > 100 | 18.5 | 42.1
12 | c1cc(-c2nnc(SSc3ncnc4nc[nH]c34)o2)ccn1 | > 100 | > 100 | 17.3 | > 100 | > 100 | > 100 | > 100 | > 100 | 4.07 | 3.38 | 0.297 | 1.32 | 6.59 | 1.84 | 0.672 | 2.02
13 | C#CCNC(=S)N/N=C(\C)c1ccccn1 | > 100 | > 100 | > 32 | 1.7 | 4.9 | > 23.7 | 4.38 | 3.52 | 0.313 | 1.24 | 0.588 | 0.201 | 0.641 | 0.35 | 0.943 | 1.12
14 | Cn1cccc1-c1cc(-c2ccccc2)[nH]c(=O)c1C#N | > 100 | > 100 | > 100 | > 100 | > 100 | > 100 | > 100 | > 100 | > 100 | > 100 | > 100 | > 100 | > 100 | > 100 | 45.1 | 95
15 | O=c1cc(-c2ccc(O)cc2)oc2cc(O[C@@H]3O[C@H](CO)[C@@H](O)[C@H](O)[C@H]3O)cc(O)c12 | > 100 | > 100 | > 100 | > 100 |  | > 100 | > 100 | > 100 |  |  |  |  |  |  |  | 
16 | CN(Cc1ccc(C(F)(F)F)cc1)CC(O)C(=O)Nc1ccc(Cl)cc1 (stereo not drawn) | 2.92 | 3.08 | 2.3 | 2.8 | 2.96 | 2.62 | 3.13 | 3.24 | 1.55 | 1.66 | 1.05 | 1.02 | 1.51 | 1.73 | 1.31 | 1.64
17 | COC(=O)c1cc2c(cc1Cl)SC1=NN(C)S(=O)N1S2(=O)=O (stereo not drawn) | > 100 | > 100 | > 100 | > 100 |  | > 100 | > 100 | > 100 | > 100 | > 100 | > 100 | > 100 |  | > 100 | 85.9 | > 100

Reference: PubChem BioAssay (NCI)
